Measured values as given in US8143293B2, “Kinase inhibitors useful for the treatment of myleoprolific diseases and other proliferative diseases” (Deciphera Pharmaceuticals, LLC, priority 2007, dated 2012).
Substitutions are numbered along the chain they refer to.

How the values were obtained:
[1] = biological target: T1, Abl kinase (SEQ ID NO: 1) (Homo sapiens, UniProt P00519); experiment: Abl kinase (SEQ ID NO:1) assay, pyruvate kinase/lactate dehydrogenase coupled; settings: 2 h preincubation, ATP 500 μM; read-out: Biochemical IC50, Abl Enzyme Assay
T1 construct: purchased deCode Genetics
T1 sequence (P00519 with tags, fused parts or gaps): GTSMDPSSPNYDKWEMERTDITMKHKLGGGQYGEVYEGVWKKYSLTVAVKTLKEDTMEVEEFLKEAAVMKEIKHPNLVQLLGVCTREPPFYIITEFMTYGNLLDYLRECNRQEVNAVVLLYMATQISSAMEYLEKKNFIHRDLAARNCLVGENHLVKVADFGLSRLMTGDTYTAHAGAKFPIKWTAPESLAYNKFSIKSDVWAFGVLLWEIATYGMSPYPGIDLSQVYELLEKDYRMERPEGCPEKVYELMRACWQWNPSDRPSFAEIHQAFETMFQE
Procedure: Abl Kinase (SEQ ID NO:1) Assay
Activity of Abl kinase (SEQ ID NO: 1) was determined by following the production of ADP from the kinase reaction through coupling with the pyruvate kinase/lactate dehydrogenase system (e.g., Schindler, et al. Science (2000) 289, 1938-1942). In this assay, the oxidation of NADH (thus the decrease at A340 nm) was continuously monitored spectrophometrically. The reaction mixture (100 μl) contained Abl kinase (1 nM. Abl from deCode Genetics), peptide substrate (EAIYAAPFAKKK, 0.2 mM), MgCl2 (10 mM), pyruvate kinase (4 units), lactate dehydrogenase (0.7 units), phosphoenol pyruvate (1 mM), and NADH (0.28 mM) in 90 mM Tris buffer containing 0.2% octyl-glucoside and 3.5% DMSO, pH 7.5. Test compounds were incubated with Abl (SEQ ID NO:1) and other reaction reagents at 30° C. for 2 h before ATP (500 μM) was added to start the reaction. The absorption at 340 nm was monitored continuously for 2 hours at 30° C. on Polarstar Optima plate reader (BMG). The reaction rate was calculated using the 1.0 to 2.0 h time frame. Percent inhibition was obtained by comparison of reaction rate with that of a control (i.e. with no test compound). IC50 values were calculated from a series of percent inhibition values determined at a range of inhibitor concentrations using software routines as implemented in the GraphPad Prism software package.

[2] = biological target: T2, T315I Abl kinase (SEQ ID NO:2) (Homo sapiens, UniProt P00519, T315I); experiment: T315I Abl kinase (SEQ ID NO:2) assay, pyruvate kinase/lactate dehydrogenase coupled; settings: 1 h preincubation, ATP 500 μM; read-out: Biochemical IC50, Abl T315I Enzyme Assay
T2 construct: purchased deCode Genetics
T2 sequence (P00519 with tags, fused parts or gaps T315I): T1 sequence (P00519 with tags, fused parts or gaps) with T94I
Procedure: Abl Kinase (SEQ ID NO:2) Assay
Activity of T315I Abl kinase (SEQ ID NO:2) was determined by following the production of ADP from the kinase reaction through coupling with the pyruvate kinase/lactate dehydrogenase system (e.g., Schindler, et al. Science (2000) 289, 1938-1942). In this assay, the oxidation of NADH (thus the decrease at A340 nm) was continuously monitored spectrophometrically. The reaction mixture (100 μl) contained Abl kinase (4.4 nM, […] Abl from deCode Genetics), peptide substrate (EAIYAAPFAKKK, 0.2 mM), MgCl2 (10 mM), pyruvate kinase (4 units), lactate dehydrogenase (0.7 units), phosphoenol pyruvate (1 mM), and NADH (0.28 mM) in 90 mM Tris buffer containing 0.2% octyl-glucoside and 1% DMSO, pH 7.5. Test compounds were incubated with T315I Abl (SEQ ID NO:2) and other reaction reagents at 30° C. for 1 h before ATP (500 μM) was added to start the reaction. The absorption at 340 nm was monitored continuously for 2 hours at 30° C. on Polarstar Optima plate reader (BMG). The reaction rate was calculated using the 1.0 to 2.0 h time frame. Percent inhibition was obtained by comparison of reaction rate with that of a control (i.e. with no test compound). IC50 values were calculated from a series of percent inhibition values determined at a range of inhibitor concentrations using software routines as implemented in the GraphPad Prism software package.

[3] = biological target: T3, C-Met kinase (SEQ ID NO:10) (Homo sapiens, UniProt P08581); experiment: C-Met kinase (SEQ ID NO:10) assay, pyruvate kinase/lactate dehydrogenase coupled; settings: 0.5 h preincubation, ATP 100 μM; read-out: Biochemical IC50, c-Met Enzyme Assay
T3 construct: 956-1390, from Invitrogen, catalogue #PV3143; His6 (N-terminal leader MSYYHHHHHH... with TEV and thrombin sites) (N); purchased Invitrogen PV3143
Procedure: C-Met Kinase (SEQ ID NO:10) Assay
Activity of C-Met kinase (SEQ ID NO:10) was determined by following the production of ADP from the kinase reaction through coupling with the pyruvate kinase/lactate dehydrogenase system (e.g., Schindler, et al. Science (2000) 289, 1938-1942). In this assay, the oxidation of NADH (thus the decrease at A340 nm) was continuously monitored spectrophometrically. The reaction mixture (100 μl) contained C-Met (c-Met residues; 956-1390, from Invitrogen, catalogue #PV3143, […]), polyE4Y (1 mg/ml), MgCl2 (10 mM), pyruvate kinase (4 units), lactate dehydrogenase (0.7 units), phosphoenol pyruvate (1 mM), and NADH (0.28 mM) in 90 mM Tris buffer containing 0.25 mM DTT, 0.2% octyl-glucoside and 1% DMSO, pH 7.5. Test compounds were incubated with C-Met (SEQ ID NO:10) and other reaction reagents at 22° C. for 0.5 h before ATP (100 μM) was added to start the reaction. The absorption at 340 nm was monitored continuously for 2 hours at 30° C. on Polarstar Optima plate reader (BMG). The reaction rate was calculated using the 1.0 to 2.0 h time frame. Percent inhibition was obtained by comparison of reaction rate with that of a control (i.e. with no test compound). IC50 values were calculated from a series of percent inhibition values determined at a range of inhibitor concentrations using software routines as implemented in the GraphPad Prism software package.

[4] = biological target: T4, BaF3 cells transfected with wild type p210 BCR-Abl (Homo sapiens, UniProt P00519); experiment: Ba/F3 p210 whole cell proliferation assay; format: cell-based; settings: 72 hours, Cell Titer Blue; read-out: Whole Cell Antiproliferation IC50, Ba/F3 p210 whole cell proliferation assay
T4 construct: fused on or other part: P11274 (Breakpoint cluster region protein)
Procedure: (§1) BaF3 cells (parental or transfected with the following: wild type p210 BCR-Abl and T315I p210 BCR-Abl was obtained from Professor Richard Van Etten (New England Medical Center, Boston, Mass.). Briefly, cells were grown in RPMI 1640 supplemented with 10% characterized fetal bovine serum (HyClone, Logan, Utah) at 37 degrees Celsius, 5% CO2, 95% humidity. Cells were allowed to expand until reaching 80% saturation at which point they were subcultured or harvested for assay use.
(§2) A serial dilution of test compound was dispensed into a 96 well black clear bottom plate (Corning, Corning, N.Y.). For each cell line, three thousand cells were added per well in complete growth medium. Plates were incubated for 72 hours at 37 degrees Celsius, 5% CO2, 95% humidity. At the end of the incubation period Cell Titer Blue (Promega, Madison, Wis.) was added to each well and an additional 4.5 hour incubation at 37 degrees Celsius, 5% CO2, 95% humidity was performed. Plates were then read on a BMG Fluostar Optima (BMG, Durham, N.C.) using an excitation of 544 nm and an emission of 612 nm. Data was analyzed using Prism software (Graphpad, San Diego, Calif.) to calculate IC50's.

[5] = biological target: T5, BaF3 cells transfected with T315I p210 BCR-Abl (Homo sapiens, UniProt P00519, T315I, cells depend on it); experiment: Ba/F3 p210 T315I whole cell proliferation assay; format: cell-based; settings: 72 hours, Cell Titer Blue; read-out: Whole Cell Antiproliferation IC50, Ba/F3 p210 T315I whole cell proliferation assay
T5 construct: fused on or other part: P11274 (Breakpoint cluster region protein)
Procedure: as §1, §2

T3 sequence (P08581 with tags, fused parts or gaps): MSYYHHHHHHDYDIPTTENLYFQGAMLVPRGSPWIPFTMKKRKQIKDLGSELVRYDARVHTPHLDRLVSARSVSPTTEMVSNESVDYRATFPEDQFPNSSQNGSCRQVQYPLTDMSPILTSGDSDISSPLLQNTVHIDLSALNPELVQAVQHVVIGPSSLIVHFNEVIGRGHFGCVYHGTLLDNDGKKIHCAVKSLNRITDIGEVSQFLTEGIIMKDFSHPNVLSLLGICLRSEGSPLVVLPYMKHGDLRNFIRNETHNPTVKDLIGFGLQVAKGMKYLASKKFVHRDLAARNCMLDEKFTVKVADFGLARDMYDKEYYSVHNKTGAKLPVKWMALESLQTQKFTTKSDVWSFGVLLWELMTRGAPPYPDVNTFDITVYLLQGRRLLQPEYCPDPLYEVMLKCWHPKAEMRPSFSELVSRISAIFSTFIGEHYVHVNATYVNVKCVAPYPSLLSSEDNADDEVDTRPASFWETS

| Compound | IC50 [1] | IC50 [2] | IC50 [3] | GI50 [4] | GI50 [5] |
| --- | --- | --- | --- | --- | --- |
| 1-(3-cyclopentylisoxazol-5-yl)-3-(2-fluoro-4-(2-(1-methyl-1H-pyrazol-4-yl)pyridin-4-yloxy)phenyl)urea [Example 13] | < 100 nM | < 10000 nM | < 1000 nM | < 100 nM | < 100 nM |
| Cc1c(NC(=O)Nc2ccc(Oc3ccnc(-c4cnn(C)c4)c3)cc2F)cnn1C(C)C [Example 19, 1-(2-fluoro-4-(2-(1-methyl-1H-pyrazol-4-yl)pyridin-4-yloxy)phenyl)-3-(1-isopropyl-5-methyl-1H-pyrazol-4-yl)urea] | < 1000 nM | < 1000 nM | < 10000 nM | < 100 nM | < 10000 nM |
| Cn1cc(-c2cc(Oc3ccc(NC(=O)Nc4cc(C(F)(F)F)no4)c(F)c3)ccn2)cn1 [Example 7, 1-(2-fluoro-4-(2-(1-methyl-1H-pyrazol-4-yl)pyridin-4-yloxy)phenyl)-3-(3-(trifluoromethyl)isoxazol-5-yl)urea] | < 100 nM | < 100 nM | < 10000 nM | < 100 nM | < 1000 nM |
| Cn1cc(-c2cc(Oc3ccc(NC(=O)Nc4ccn(C(C)(C)C)c4)c(F)c3)ccn2)cn1 [Example 30, 1-(1-tert-butyl-1H-pyrrol-3-yl)-3-(2-fluoro-4-(2-(1-methyl-1H-pyrazol-4-yl)pyridin-4-yloxy)phenyl)urea] | < 100 nM | < 100 nM | < 10000 nM | < 100 nM | < 1000 nM |
| Cn1cc(-c2cc(Oc3ccc(NC(=O)Nc4cc(C(F)(F)F)nn4C)c(F)c3)ccn2)cn1 [Example 16, 1-(2-fluoro-4-(2-(1-methyl-1H-pyrazol-4-yl)pyridin-4-yloxy)phenyl)-3-(1-methyl-3-(trifluoromethyl)-1H-pyrazol-5-yl)urea] | < 100 nM | < 1000 nM | < 10000 nM | < 100 nM | < 1000 nM |
| tert-butyl 4-(2-tert-butyl-5-(3-(2-fluoro-4-(2-(1-methyl-1H-pyrazol-4-yl)pyridin-4-yloxy)phenyl)ureido)pyrimidin-4-yl)piperazine-1-carboxylate [Example 40] | < 100 nM | < 1000 nM | < 100000 nM | < 1000 nM | < 1000 nM |
| Cn1cc(-c2cc(Oc3ccc(NC(=O)Nc4cc(C(C)(C)C)on4)c(F)c3)ccn2)cn1 [Example 4, 1-(5-t-butylisoxazol-3-yl)-3-(2-fluoro-4-(2-(1-methyl-1H-pyrazol-4-yl)pyridin-4-yloxy)phenyl)urea] | < 100 nM | < 100 nM | < 1000 nM | < 100 nM | < 100 nM |
| Cc1nn(C(C)C)cc1NC(=O)Nc1ccc(Oc2ccnc(-c3cnn(C)c3)c2)cc1F [Example 20, 1-(2-fluoro-4-(2-(1-methyl-1H-pyrazol-4-yl)pyridin-4-yloxy)phenyl)-3-(1-isopropyl-3-methyl-1H-pyrazol-4-yl)urea] | < 100 nM | < 100 nM | < 10000 nM | < 100 nM | < 1000 nM |
| CC(C)n1cc(NC(=O)Nc2ccc(Oc3ccnc(-c4cnn(C)c4)c3)cc2F)c(C(F)(F)F)n1 [Example 18, 1-(2-fluoro-4-(2-(1-methyl-1H-pyrazol-4-yl)pyridin-4-yloxy)phenyl)-3-(1-isopropyl-3-(trifluoromethyl)-1H-pyrazol-4-yl)urea] | < 100 nM |  | < 10000 nM | < 100 nM | < 100 nM |
| Cc1c(Oc2ccnc(-c3cnn(C)c3)c2)ccc(NC(=O)Nc2cnn(C(C)(C)C)c2)c1F [Example 17, 1-(1-tert-butyl-1H-pyrazol-4-yl)-3-(2-fluoro-3-methyl-4-(2-(1-methyl-1H-pyrazol-4-yl)pyridin-4-yloxy)phenyl)urea] | < 100 nM | < 100 nM | < 1000 nM | < 100 nM | < 100 nM |
